Results taken from patent US20060069067A1, “Combination of an aromatase inhibitor with a bisphosphonate” (priority 2002, published 2006).

What was measured:
Type in all cases: in vivo, rat
letrozole-treated rats [1] = assay: pQCT monitoring of bone loss in the proximal tibia metaphysis of rats given daily oral letrozole
Experimental: (§1) It was investigated whether bone loss induced in rats by either ovariectomy (OVX) or the aromatase inhibitor letrozole (Let) could be prevented by the bisphosphonate zoledronic acid (Zol).
(§2) Material and Methods: Adult, skeletally mature, 8-month-old female Wistar rats were assigned to the following treatment groups […]: Sham (vehicle), OVX, Let-treated, OVX +Zol and Let+Zol. Zol was injected into the tail vein as a single dose of 0.8, 4 or 20 μg/kg 3 days before OVX or before initiating daily oral dosing of Let (1 mg/kg) for 24 weeks. Changes in total and cancellous bone mineral density (BMD) and cortical thickness in the proximal tibia metaphysis were monitored non-invasively by peripheral quantitative computed tomography (pQCT) at 0, 2, 4, 8, 12, 16, 20 and 24 weeks.

letrozole-treated rats [2] = assay: Compression test of the 5th lumbar vertebral body after letrozole administration
Experimental: as §2
(§3) Both tibiae, femora and lumbar vertebrae L1-L6 were harvested at necropsy in order to carry out biomechanical testing.
(§4) Mechanical properties of the 5th lumbar vertebral body were evaluated in compression after removal of the epiphyseal ends, posterior pedicle arch and spinous process on a 4 mm segment with piano-parallel ends.

OVX rats [3] = assay: pQCT monitoring of bone loss in the proximal tibia metaphysis of ovariectomized rats
Experimental: as §1, §2

OVX rats [4] = assay: Compression test of the 5th lumbar vertebral body after OVX; settings: single iv 0.8, 4 or 20 μg/kg
Experimental: as §2, §3, §4

[5] = daily oral letrozole 1 mg/kg, at 24 weeks, P<0.01 vs sham
[6] = letrozole-treated rats, 4 μg/kg iv
[7] = letrozole-treated rats, highest dose (20 μg/kg iv), P<0.01 vs letrozole, NS vs sham

Which results are given for `N#Cc1ccc(C(c2ccc(C#N)cc2)n2cncn2)cc1` [letrozole, 4-[α-(4-cyanophenyl)-1-(1,2,4-triazolyl)methyl]-benzonitrile]?
change in cancellous bone mineral density (cancellous bone loss) (letrozole-treated rats [1]; [5]): −26%; change in mean cortical thickness (letrozole-treated rats [1]; [5]): −21%; change in total BMD (letrozole-treated rats [1]; [5]): −13%; ultimate bone strength of 5th lumbar vertebral body (letrozole-treated rats [2]; daily oral letrozole 1 mg/kg for 24 weeks, NS): decreased

Which results are given for `O=P(O)(O)C(O)(Cn1ccnc1)P(=O)(O)O` [zoledronic acid, 2-(imidazol-1yl)-1-hydroxyethane-1,1-diphosphonic acid]?
time for which cancellous bone loss was fully prevented (letrozole-treated rats [1]; [6]): 8 weeks; time for which cancellous bone mineral density remained significantly higher than in letrozole-treated rats (letrozole-treated rats [1]; [6]): 24 weeks; time for which cortical thinning was fully prevented (letrozole-treated rats [1]; [6]): 4 weeks; week until which cortical thickness stayed significantly above the letrozole control (letrozole-treated rats [1]; letrozole-treated rats, 4 μg/kg iv, P<0.01 vs letrozole): 20 week; duration of full protection of total BMD (NS vs sham) (letrozole-treated rats [1]; letrozole-treated rats, highest dose (20 μg/kg iv)): 24 week; duration of full protection against cancellous bone loss (letrozole-treated rats [1]; [7]): 24 weeks; time for which cortical thinning was fully protected against (letrozole-treated rats [1]; [7]): 24 weeks; time for which bone loss (total BMD) was delayed (marginally but significantly) (letrozole-treated rats [1]; letrozole-treated rats, single iv 0.8 μg/kg): 4 weeks; time for which cancellous bone loss was delayed (marginally but significantly) (letrozole-treated rats [1]; letrozole-treated rats, single iv 0.8 μg/kg, P<0.05 vs letrozole): 8 weeks; protective effect on mean cortical thickness (letrozole-treated rats [1]; letrozole-treated rats, single iv 0.8 μg/kg, at 2 weeks, P<0.05 vs letrozole): marginal but significant protective effect; time for which bone loss (total BMD) was delayed significantly (letrozole-treated rats [1]; letrozole-treated rats, single iv 4 μg/kg, P<0.01 vs letrozole): 24 weeks; time for which bone loss (total BMD) was delayed significantly (letrozole-treated rats [1]; letrozole-treated rats, single iv 20 μg/kg, P<0.01 vs letrozole): 24 weeks; duration of full protection against Let-induced bone loss (letrozole-treated rats [1]; rats, dose of 20 μg/kg): at least 24 weeks; protection against cancellous bone loss, cortical thinning and reduction of bone strength induced by daily oral Let (letrozole-treated rats [1]; rats, summary in discussion): dose-dependently protects; protection against bone loss in rats treated with letrozole (letrozole-treated rats [1]; summary statement): long term protection against bone loss; duration of full protection against cancellous bone loss (OVX rats [3]; highest dose (20 μg/kg iv)): 20 weeks; duration of full protection of total BMD (NS vs sham) (OVX rats [3]; highest dose (20 μg/kg iv)): 24 week; protection of cortical thickness (NS vs sham at all time points) (OVX rats [3]; highest dose (20 μg/kg iv), 24-week study): fully protective for the full duration of the study; cancellous bone at 24 weeks (OVX rats [3]; highest dose (20 μg/kg iv), 24 weeks, NS vs sham): mild cancellous bone loss was visible; time for which cancellous bone loss was delayed (marginally but significantly) (OVX rats [3]; single iv 0.8 μg/kg): 12 weeks; protective effect on mean cortical thickness (OVX rats [3]; single iv 0.8 μg/kg, at 2 weeks, P<0.05 vs OVX): marginal protective effect; time for which cancellous bone mineral density was significantly better than in OVX controls (OVX rats [3]; single iv 4 μg/kg): 24 weeks; time for which cortical thickness was significantly better than in OVX controls (OVX rats [3]; single iv 4 μg/kg): 12 weeks; time for which cancellous bone mineral density was significantly better than in OVX controls (OVX rats [3]; single iv 20 μg/kg): 24 weeks; time for which cortical thickness was significantly better than in OVX controls (OVX rats [3]; single iv 20 μg/kg): 24 weeks; time for which bone loss (total BMD) was delayed significantly (OVX rats [3]; single iv injection 0.8 μg/kg 3 days before OVX): 8 weeks; time for which bone loss (total BMD) was delayed significantly (OVX rats [3]; single iv injection 4 μg/kg): 20 weeks; time for which bone loss (total BMD) was delayed significantly (OVX rats [3]; single iv injection 20 μg/kg): 24 weeks; ultimate bone strength of 5th lumbar vertebral body (letrozole-treated rats [2]; letrozole-treated rats, single iv 0.8, 4 or 20 μg/kg, compression): dose-dependently improved; ultimate bone strength of 5th lumbar vertebral body (OVX rats [4]): dose-dependently improved
